Measurements from patent publication US10131652B2, “Pyrimidinyloxy benzene derivatives as herbicides” (E. I. DU PONT DE NEMOURS AND COMPANY, priority 2014, dated 2018).

Assays:
Type in all cases: in vivo
[1] = tested on: ragweed (common ragweed, Ambrosia elatior); experiment: Test B pre-/postemergence plant response
Text: (§1) Seeds of plant species selected from bamyardgrass (Echinochloa crus-galli), kochia (Kochia scoparia), ragweed (common ragweed, Ambrosia elatior), Italian ryegrass (Lolium multiflorum), large (Lg) crabgrass (Digitaria sanguinalis), giant foxtail (Setaria faberii), momingglory (Ipomoea spp.), pigweed (Amaranthus retroflexus), velvetleaf (Abutilon theophrasti), wheat (Triticum aestivum), and corn (Zea mays) were planted into a blend of loam soil and sand and treated preemergence with a directed soil spray using test chemicals formulated in a non-phytotoxic solvent mixture which included a surfactant. At the same time, plants selected from these crop and weed species and also blackgrass (Alopecurus myosuroides), and galium (catchweed bedstraw, Galium aparine) were planted in pots containing the same blend of loam soil and sand and treated with postemergence applications of test chemicals formulated in the same manner. Plants ranged in height from 2 to 10 cm and were in the one- to two-leaf stage for the postemergence treatment. Treated plants and untreated controls were maintained in a greenhouse for approximately 10 days, after which time all treated plants were compared to untreated controls and visually evaluated for injury. Plant response ratings, summarized in Table B, are based on a 0 to 100 scale where 0 is no effect and 100 is complete control. A dash (-) response means no test result.

[2] = tested on: Italian ryegrass (Lolium multiflorum); experiment: Test B pre-/postemergence plant response
Text: as §1

[3] = tested on: pigweed (Amaranthus retroflexus); experiment: Test B pre-/postemergence plant response
Text: as §1

[4] = tested on: giant foxtail (Setaria faberii); experiment: Test B pre-/postemergence plant response
Text: as §1

corn (Zea mays) = experiment: Test B pre-/postemergence plant response
Text: as §1

[5] = tested on: barnyardgrass (Echinochloa crus-galli); experiment: Test B pre-/postemergence plant response
Text: as §1

kochia (Kochia scoparia) = experiment: Test B pre-/postemergence plant response
Text: as §1

[6] = tested on: wheat (Triticum aestivum); experiment: Test B pre-/postemergence plant response
Text: as §1

[7] = tested on: blackgrass (Alopecurus myosuroides); experiment: Test B postemergence plant response
Text: (§2) At the same time, plants selected from these crop and weed species and also blackgrass (Alopecurus myosuroides), and galium (catchweed bedstraw, Galium aparine) were planted in pots containing the same blend of loam soil and sand and treated with postemergence applications of test chemicals formulated in the same manner. Plants ranged in height from 2 to 10 cm and were in the one- to two-leaf stage for the postemergence treatment. Treated plants and untreated controls were maintained in a greenhouse for approximately 10 days, after which time all treated plants were compared to untreated controls and visually evaluated for injury. Plant response ratings, summarized in Table B, are based on a 0 to 100 scale where 0 is no effect and 100 is complete control. A dash (-) response means no test result.

[8] = tested on: galium (catchweed bedstraw, Galium aparine); experiment: Test B postemergence plant response
Text: as §2

[9] = tested on: small-flower umbrella sedge (Cyperus difformis); experiment: Test C flooded paddy test plant response; details: Flood, 250 g ai/ha; scale of 0 to 100 where 0 is no effect and 100 is complete control; 13 to 15 days
Procedure: (§3) Plant species in the flooded paddy test selected from rice (Oryza sativa), small-flower umbrella sedge (Cyperus difformis), ducksalad (Heteranthera limosa), and bamyardgrass (Echinochloa crus-galli) were grown to the 2-leaf stage for testing. At time of treatment, test pots were flooded to 3 cm above the soil surface, treated by application of test compounds directly to the paddy water, and then maintained at that water depth for the duration of the test. Treated plants and controls were maintained in a greenhouse for 13 to 15 days, after which time all species were compared to controls and visually evaluated. Plant response ratings, summarized in Table C, are based on a scale of 0 to 100 where 0 is no effect and 100 is complete control. A dash (-) response means no test result.

rice (Oryza sativa) = experiment: Test C flooded paddy test plant response; details: Flood, 250 g ai/ha; scale of 0 to 100 where 0 is no effect and 100 is complete control; 13 to 15 days
Procedure: as §3

[10] = tested on: barnyardgrass (Echinochloa crus-galli); experiment: Test C flooded paddy test plant response; details: Flood, 250 g ai/ha; scale of 0 to 100 where 0 is no effect and 100 is complete control; 13 to 15 days
Procedure: as §3

[11] = tested on: ducksalad (Heteranthera limosa); experiment: Test C flooded paddy test plant response; details: Flood, 250 g ai/ha; scale of 0 to 100 where 0 is no effect and 100 is complete control; 13 to 15 days
Procedure: as §3

[12] = 31 g ai/ha, Postemergence, 0 to 100 scale, 0 no effect, 100 complete control
[13] = 125 g ai/ha, postemergence, 0 to 100 scale, 0 no effect, 100 complete control
[14] = Preemergence, 31 g ai/ha, 0 to 100 scale (0 no effect, 100 complete control)
[15] = Preemergence, 125 g ai/ha, 0 to 100 scale where 0 is no effect and 100 is complete control
[16] = Postemergence, 500 g ai/ha, 0 to 100 scale (0 no effect, 100 complete control)
[17] = Preemergence, 500 g ai/ha, 0 to 100 scale where 0 is no effect and 100 is complete control

Row | SMILES | Plant response rating, Ragweed [1, 13] | Plant response rating, Ragweed [1, 15] | Plant response rating, Ryegrass, Italian [2, 13] | Plant response rating, Ryegrass, Italian [2, 15] | Plant response rating, Pigweed [3, 13] | Plant response rating, Pigweed [3, 15] | Plant response rating, Foxtail, Giant [4, 13] | Plant response rating, Foxtail, Giant [4, 15] | Plant response rating, Corn (corn (Zea mays); [13]) | Plant response rating, Barnyardgrass [5, 13] | Plant response rating, Barnyardgrass [5, 15] | Plant response rating, Kochia (kochia (Kochia scoparia); [13]) | Plant response rating, Kochia (kochia (Kochia scoparia); [15]) | Plant response rating, Wheat [6, 13] | Plant response rating, Blackgrass [7, 13] | Plant response rating, Galium [8, 13] | Sedge, Umbrella plant response rating [9] | Rice plant response rating (rice (Oryza sativa)) | Barnyardgrass plant response rating [10] | Ducksalad plant response rating [11] | further results
1 | N#Cc1cc(-c2ccccc2Oc2ncc(Cl)cn2)no1 [Compound 38] | 0 | 0 | 0 | 0 | 20 | 40 | 0 | 0 | 0 | 0 | 0 | 30 | 0 | 0 | 0 | 30 | 0 | 0 | 0 | 60 | Plant response rating, Ragweed [1, 12]: 0; Ragweed plant response rating [1, 14]: 0; Plant response rating, Ryegrass, Italian [2, 12]: 0; Ryegrass, Italian plant response rating [2, 14]: 0; Plant response rating, Pigweed [3, 12]: 0; Pigweed plant response rating [3, 14]: 0; Plant response rating, Foxtail, Giant [4, 12]: 0; Foxtail, Giant plant response rating [4, 14]: 0; Plant response rating, Corn (corn (Zea mays); [12]): 0; Plant response rating, Barnyardgrass [5, 12]: 0; Barnyardgrass plant response rating [5, 14]: 0; Plant response rating, Kochia (kochia (Kochia scoparia); [12]): 0; Kochia plant response rating (kochia (Kochia scoparia); [14]): 0; Plant response rating, Wheat [6, 12]: 0; Plant response rating, Blackgrass [7, 12]: 0; Plant response rating, Galium [8, 12]: 20
2 | Cn1nnnc1-c1ccccc1Oc1ncc(Cl)cn1 [Compound 47] | 20 | 10 | 0 | 0 | 50 | 30 | 0 | 10 | 0 | 0 | 0 | 60 | 60 | 0 | 0 | 30 | 0 | 0 | 0 | 0 | Plant response rating, Ragweed [1, 16]: 30; Plant response rating, Ragweed [1, 17]: 60; Plant response rating, Ryegrass, Italian [2, 16]: 0; Plant response rating, Ryegrass, Italian [2, 17]: 0; Plant response rating, Pigweed [3, 16]: 70; Plant response rating, Pigweed [3, 17]: 60; Plant response rating, Foxtail, Giant [4, 16]: 50; Plant response rating, Foxtail, Giant [4, 17]: 30; Plant response rating, Corn (corn (Zea mays); [16]): 0; Plant response rating, Barnyardgrass [5, 16]: 0; Plant response rating, Barnyardgrass [5, 17]: 0; Plant response rating, Kochia (kochia (Kochia scoparia); [16]): 80; Plant response rating, Kochia (kochia (Kochia scoparia); [17]): 70; Plant response rating, Wheat [6, 16]: 10; Plant response rating, Blackgrass [7, 16]: 0; Plant response rating, Galium [8, 16]: 60
3 | Cn1nnc(-c2ccccc2Oc2ncc(Cl)cn2)n1 [Compound 48] | 50 | 50 | 0 | 40 | 70 | 80 | 0 | 10 | 0 | 0 | 0 | 50 | 60 | 0 | 40 | 70 | 0 | 0 | 0 | 0 | Plant response rating, Ragweed [1, 16]: 70; Plant response rating, Ragweed [1, 17]: 60; Plant response rating, Ryegrass, Italian [2, 16]: 0; Plant response rating, Ryegrass, Italian [2, 17]: 50; Plant response rating, Pigweed [3, 16]: 100; Plant response rating, Pigweed [3, 17]: 100; Plant response rating, Foxtail, Giant [4, 16]: 40; Plant response rating, Foxtail, Giant [4, 17]: 50; Plant response rating, Corn (corn (Zea mays); [16]): 10; Plant response rating, Barnyardgrass [5, 16]: 0; Plant response rating, Barnyardgrass [5, 17]: 40; Plant response rating, Kochia (kochia (Kochia scoparia); [16]): 100; Plant response rating, Kochia (kochia (Kochia scoparia); [17]): 80; Plant response rating, Wheat [6, 16]: 0; Plant response rating, Blackgrass [7, 16]: 60; Plant response rating, Galium [8, 16]: 100
4 | Cn1nnnc1-c1ccccc1Oc1ncc(Br)cn1 [Compound 49] | 30 | 0 | 0 | 0 | 10 | 20 | 0 | 0 | 0 | 0 | 0 | 30 | 0 | 10 | 0 | 20 | 0 | 0 | 0 | 0 | Plant response rating, Ragweed [1, 16]: 30; Plant response rating, Ragweed [1, 17]: 0; Plant response rating, Ryegrass, Italian [2, 16]: 0; Plant response rating, Ryegrass, Italian [2, 17]: 0; Plant response rating, Pigweed [3, 16]: 30; Plant response rating, Pigweed [3, 17]: 30; Plant response rating, Foxtail, Giant [4, 16]: 10; Plant response rating, Foxtail, Giant [4, 17]: 20; Plant response rating, Corn (corn (Zea mays); [16]): 10; Plant response rating, Barnyardgrass [5, 16]: 10; Plant response rating, Barnyardgrass [5, 17]: 0; Plant response rating, Kochia (kochia (Kochia scoparia); [16]): 30; Plant response rating, Kochia (kochia (Kochia scoparia); [17]): 70; Plant response rating, Wheat [6, 16]: 20; Plant response rating, Blackgrass [7, 16]: 10; Plant response rating, Galium [8, 16]: 60
5 | Cn1cc(-c2ccccc2Oc2ncc(Cl)cn2)nn1 [Compound 51] | 20 | 50 | 0 | 0 | 70 | 50 | 10 | 10 | 0 | 0 | 0 | 70 | 10 | 0 | 0 | 60 | 0 | 0 | 0 | 30 | Plant response rating, Ragweed [1, 16]: 60; Plant response rating, Ragweed [1, 17]: 50; Plant response rating, Ryegrass, Italian [2, 16]: 0; Plant response rating, Ryegrass, Italian [2, 17]: 0; Plant response rating, Pigweed [3, 16]: 80; Plant response rating, Pigweed [3, 17]: 100; Plant response rating, Foxtail, Giant [4, 16]: 50; Plant response rating, Foxtail, Giant [4, 17]: 60; Plant response rating, Corn (corn (Zea mays); [16]): 0; Plant response rating, Barnyardgrass [5, 16]: 0; Plant response rating, Barnyardgrass [5, 17]: 10; Plant response rating, Kochia (kochia (Kochia scoparia); [16]): 100; Plant response rating, Kochia (kochia (Kochia scoparia); [17]): 70; Plant response rating, Wheat [6, 16]: 10; Plant response rating, Blackgrass [7, 16]: 50; Plant response rating, Galium [8, 16]: 90
